Laboratory results as given in patent US9896445B2, “Heterocyclic inhibitors of ERK1 and ERK2 and their use in the treatment of cancer” (Asana Biosciences, LLC, priority 2015, dated 2018).

Columns and labels:
ERK2 = target: T1, ERK2 (Homo sapiens, UniProt P28482); assay: ERK2 HTRF (biochemical) assay; settings: HTRF
T1 construct: purchased Jubilant Biosys
How it was run: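 Compounds were tested as half-log dilutions from 0.0005 to 10 uM in Tris pH 7.5/MgCl2 buffer, with a substrate mix of 1 uM biotin-MBP peptide and 24 uM ATP and an enzyme mix of 25 nM ERK2. Reaction ran 60 min at room temperature. Phospho-MBP was detected by HTRF (Eu-anti-phospho-MBP/SA-APC, 665/620 nm), and IC50 was fitted with a variable-slope sigmoidal curve.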

ERK1 = target: T2, ERK1 (Homo sapiens, UniProt P27361); assay: ERK1 HTRF (biochemical) assay; settings: HTRF
T2 construct: purchased Jubilant Biosys
T2 sequence (P27361 whole entry): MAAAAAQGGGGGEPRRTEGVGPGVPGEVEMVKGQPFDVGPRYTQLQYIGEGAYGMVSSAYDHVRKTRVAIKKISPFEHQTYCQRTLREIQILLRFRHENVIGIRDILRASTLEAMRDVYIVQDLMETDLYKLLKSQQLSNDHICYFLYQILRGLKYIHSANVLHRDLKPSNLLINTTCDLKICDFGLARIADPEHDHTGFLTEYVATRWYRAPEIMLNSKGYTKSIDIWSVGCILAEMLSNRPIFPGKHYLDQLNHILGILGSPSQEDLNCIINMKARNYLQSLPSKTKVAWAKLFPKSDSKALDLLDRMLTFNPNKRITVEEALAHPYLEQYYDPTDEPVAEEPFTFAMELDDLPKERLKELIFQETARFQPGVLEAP
Description: ERK1 and ERK2 HTRF (Biochemical) Assays
These assays employed a homogeneous time resolved fluorescence (HTRF) technique. […] The plate was incubated at room temperature for 60 min with shaking. […] The IC50 values (half maximal inhibitory concentration values) were subsequently determined using a sigmoidal dose-response curve (variable slope) in GraphPad Prism® 5 software.

T1 sequence (P28482 whole entry): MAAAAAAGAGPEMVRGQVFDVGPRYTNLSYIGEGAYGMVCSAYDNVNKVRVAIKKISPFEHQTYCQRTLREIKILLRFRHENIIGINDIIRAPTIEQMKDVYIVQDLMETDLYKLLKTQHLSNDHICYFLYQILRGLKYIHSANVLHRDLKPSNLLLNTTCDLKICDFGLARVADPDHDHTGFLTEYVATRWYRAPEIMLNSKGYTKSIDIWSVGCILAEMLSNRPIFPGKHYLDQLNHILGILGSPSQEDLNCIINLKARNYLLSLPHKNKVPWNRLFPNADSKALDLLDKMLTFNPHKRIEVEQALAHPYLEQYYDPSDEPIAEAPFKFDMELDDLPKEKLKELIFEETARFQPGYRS

Structure (SMILES)	IC50 (ERK2)	IC50 (ERK1)
O=C(NC(CO)c1ccccc1)c1ccn(-c2ccnc(Nc3ccc4c(c3)OCO4)c2)c1 (stereo not shown) [Compound 76, 1-(2-(benzo[d][1,3]dioxol-5-ylamino)pyridin-4-yl)-N-(2-hydroxy-1-phenylethyl)-1H-pyrrole-3-carboxamide]	≤ 50 nM	< 50 nM
Cc1cnc(Nc2ccc(F)cc2Cl)cc1-n1ccc(C(=O)NC(CO)c2ccccc2)c1 (stereo not shown) [Compound 78, 1-(2-((2-chloro-4-fluorophenyl)amino)-5-methylpyridin-4-yl)-N-(2-hydroxy-1-phenylethyl)-1H-pyrrole-3-carboxamide]	≤ 50 nM	< 50 nM
Cc1cnc(Nc2ccc3occc3c2)cc1-n1ccc(C(=O)NC(CO)c2ccccc2)c1 (stereo not shown) [Compound 79, 1-(2-(benzofuran-5-ylamino)-5-methylpyridin-4-yl)-N-(2-hydroxy-1-phenylethyl)-1H-pyrrole-3-carboxamide]	≤ 50 nM	100 to 500 nM
Cc1cnc(Nc2ccc3c(c2)OC(F)(F)O3)cc1-n1ccc(C(=O)NC(CO)c2ccccc2)c1 (stereo not shown) [Compound 80, 1-(2-((2,2-difluorobenzo[d] [1,3]dioxol-5-yl)-amino)-5-methyl-pyridin-4-yl)-N-(2-hydroxy-1-phenyl-ethyl)-1H-pyrrole-3-carboxamide]	≤ 50 nM	< 50 nM
Cc1cnc(Nc2cccnc2)cc1-n1ccc(C(=O)NC(CO)c2ccccc2)c1 (stereo not shown) [Compound 81, N-(2-hydroxy-1-phenylethyl)-1-(5-methyl-2-(pyridin-3-ylamino)pyridin-4-yl)-1H-pyrrole-3-carboxamide]	≤ 50 nM	< 50 nM
O=C(NC(CO)c1ccccc1)c1ccn(-c2ccnc(Nc3ccc(F)cc3Cl)c2)c1 (stereo not shown) [Compound 82, 1-(2-((2-chloro-4-fluorophenyl)amino)pyridin-4-yl)-N-(2-hydroxy-1-phenylethyl)-1H-pyrrole-3-carboxamide]	≤ 50 nM	50 to 100 nM
Cc1cnc(Nc2ccc(N3CCNCC3)cc2)cc1-n1ccc(C(=O)NC(CO)c2ccccc2)c1 (stereo not shown) [Compound 83, N-(2-hydroxy-1-phenylethyl)-1-(5-methyl-2-((4-(piperazin-1-yl)-phenyl)amino)-pyridin-4-yl)-1H-pyrrole-3-carboxamide]	≤ 50 nM	100 to 500 nM
O=C(NC(CO)c1ccccc1)c1ccn(-c2ccnc(Nc3ccc(F)cc3)c2)c1 (stereo not shown) [Compound 84, 1-(2-((4-fluoro-phenyl)amino)pyridin-4-yl)-N-(2-hydroxy-1-phenyl-ethyl)-1H-pyrrole-3-carboxamide]	≤ 50 nM	< 50 nM
Cc1cnc(Nc2ccc(F)cc2Cl)cc1-n1cnc(C(=O)NC(CO)c2ccccc2)c1 (stereo not shown) [Compound 85, 1-(2-((2-chloro-4-fluorophenyl)amino)-5-methylpyridin-4-yl)-N-(2-hydroxy-1-phenylethyl)-1H-imidazole-4-carboxamide]	100 to 500 nM	100 to 500 nM
Cc1cnc(Nc2ccc3c(c2)OCO3)nc1-n1ccc(C(=O)N[C@H](CO)c2ccc(F)c(Cl)c2)c1 [Compound 87]	≤ 50 nM	< 50 nM
Cc1cnc(Nc2ccc3c(c2)OCO3)cc1-n1cnc(C(=O)NC(CO)c2cccc(Cl)c2)c1 (stereo not shown) [Compound 88, 1-(2-(benzo[d][1,3]dioxol-5-ylamino)-5-methylpyridin-4-yl)-N-(1-(3-chloro-phenyl)-2-hydroxy-ethyl)-1H-imidazole-4-carboxamide]	≤ 50 nM	< 50 nM
Cc1cnc(Nc2ccccc2)cc1-n1cnc(C(=O)NC(CO)c2ccccc2)c1 (stereo not shown) [Compound 89, N-(2-hydroxy-1-phenylethyl)-1-(5-methyl-2-(phenyl-amino)pyridin-4-yl)-1H-imidazole-4-carboxamide]	≤ 50 nM	100 to 500 nM
Cc1cnc(Nc2ccc3c(c2)OC(F)(F)O3)cc1-n1cnc(C(=O)NC(CO)c2cccc(Cl)c2)c1 (stereo not shown) [Compound 90, N-(1-(3-chlorophenyl)-2-hydroxyethyl)-1-(2-((2,2-difluoro-benzo[d][1,3]dioxol-5-yl)amino)-5-methylpyridin-4-yl)-1H-imidazole-4-carboxamide]	≤ 50 nM	100 to 500 nM
Cc1cnc(Nc2ccc(F)cc2Cl)cc1-n1ccc(C(=O)NC(CO)c2cccc(Cl)c2)c1 (stereo not shown) [Compound 91, 1-(2-((2-chloro-4-fluorophenyl)amino)-5-methylpyridin-4-yl)-N-(1-(3-chlorophenyl)-2-hydroxyethyl)-1H-pyrrole-3-carboxamide]	≤ 50 nM	< 50 nM
Cc1cnc(Nc2ccc3c(c2)OC(F)(F)O3)cc1-n1ccc(C(=O)NC(CO)c2cccc(Cl)c2)c1 (stereo not shown) [Compound 92, N-(1-(3-chlorophenyl)-2-hydroxyethyl)-1-(2-((2,2-difluoro-benzo[d][1,3]dioxol-5-yl)amino)-5-methylpyridin-4-yl)-1H-pyrrole-3-carboxamide]	≤ 50 nM	< 50 nM
Cc1cnc(NC2CCOCC2)nc1-n1cnc(C(=O)NCc2cccc(Cl)c2CO)c1 [Compound 93, N-(3-chloro-2-(hydroxymethyl)benzyl)-1-(5-methyl-2-((tetrahydro-2H-pyran-4-yl)amino)pyrimidin-4-yl)-1H-imidazole-4-carboxamide]	≤ 50 nM	< 50 nM
Cc1cnc(NC2CCOCC2)nc1-n1cnc(C(=O)NCc2ccccc2CCO)c1 [Compound 94, N-(2-(2-hydroxyethyl)benzyl)-1-(5-methyl-2-((tetrahydro-2H-pyran-4-yl)amino)pyrimidin-4-yl)-1H-imidazole-4-carboxamide]	≤ 50 nM	< 50 nM
Cc1cnc(Nc2ccc3c(c2)OC(C)(C)O3)nc1-n1ccc(C(=O)NC(CO)c2ccccc2)c1 (stereo not shown) [Compound 95, 1-(2-((2,2-dimethylbenzo[d] [1,3]dioxol-5-yl)-amino)-5-methyl-pyrimidin-4-yl)-N-(2-hydroxy-1-phenylethyl)-1H-pyrrole-3-carboxamide]	≤ 50 nM	50 to 100 nM
Cc1cnc(Nc2ccc3c(c2)OC(C)(C)O3)nc1-n1ccc(C(=O)NC(CO)c2cccc(Cl)c2)c1 (stereo not shown) [Compound 96, N-(1-(3-chloro-phenyl)-2-hydroxyethyl)-1-(2-((2,2-dimethyl-benzo[d][1,3]dioxol-5-yl)amino)-5-methylpyrimidin-4-yl)-1H-pyrrole-3-carboxamide]	≤ 50 nM	< 50 nM
Cc1cnc(Nc2ccc(F)cc2)cc1-n1ccc(C(=O)NC(CN)c2ccccc2)c1 (stereo not shown) [Compound 98, N-(2-amino-1-phenylethyl)-1-(2-((4-fluorophenyl)-amino)-5-methyl-pyridin-4-yl)-1H-pyrrole-3-carboxamide]	≤ 50 nM	< 50 nM
Cc1cnc(Nc2ccc3c(c2)OC(F)(F)O3)cc1-n1cnc(C(=O)NC(CN)Cc2ccccc2)c1 (stereo not shown) [Compound 99, N-(1-amino-3-phenylpropan-2-yl)-1-(2-((2,2-difluorobenzo[d] [1,3]dioxol-5-yl)amino)-5-methylpyridin-4-yl)-1H-imidazole-4-carboxamide]	100 to 500 nM	100 to 500 nM
CC[C@@H](CO)Nc1cc(-n2ccc(C(=O)NC(CO)c3ccccc3)c2)c(C)cn1 (stereo partly drawn) [Compound 100, N-(2-hydroxy-1-phenylethyl)-1-(2-(((S)-1-hydroxy-butan-2-yl)amino)-5-methylpyridin-4-yl)-1H-pyrrole-3-carboxamide]	≤ 50 nM	50 to 100 nM
Cc1cnc(Nc2cc3c(cc2Cl)OCO3)nc1-n1ccc(C(=O)NC(CO)c2cccc(Cl)c2)c1 (stereo not shown) [Compound 101, 1-(2-((6-chloro-benzo[d][1,3]dioxol-5-yl)amino)-5-methylpyrimidin-4-yl)-N-(1-(3-chlorophenyl)-2-hydroxyethyl)-1H-pyrrole-3-carboxamide]	≤ 50 nM	< 50 nM
Cc1cnc(Nc2ccc3c(c2)OCO3)nc1-n1ccc(C(=O)NC(CO)c2cccnc2)c1 (stereo not shown) [Compound 103, 1-(2-(benzo[d][1,3]dioxol-5-ylamino)-5-methylpyrimidin-4-yl)-N-(2-hydroxy-1-(pyridin-3-yl)ethyl)-1H-pyrrole-3-carboxamide]	≤ 50 nM	100 to 500 nM
O=C(NC(CO)c1cccc(Cl)c1)c1cn(-c2cc(Nc3ccccc3)ncc2Cl)cn1 (stereo not shown) [Compound 106, 1-(5-Chloro-2-(phenylamino)pyridin-4-yl)-N-(1-(3-chlorophenyl)-2-hydroxyethyl)-1H-imidazole-4-carboxamide]	≤ 50 nM	< 50 nM
Cc1cn(-c2nc(Nc3ccc(F)cc3)ncc2C)cc1C(=O)NC(CO)c1cccc(Cl)c1 (stereo not shown) [Compound 107, N-(1-(3-chlorophenyl)-2-hydroxyethyl)-1-(2-((4-fluoro-phenyl)amino)-5-methylpyrimidin-4-yl)-4-methyl-1H-pyrrole-3-carboxamide]	≤ 50 nM	< 50 nM
Cc1cn(-c2nc(Nc3ccc(F)cc3)ncc2C)cc1C(=O)NC(CO)c1ccccc1 (stereo not shown) [Compound 108, 1-(2-((4-fluoro-phenyl)amino)-5-methylpyrimidin-4-yl)-N-(2-hydroxy-1-phenylethyl)-4-methyl-1H-pyrrole-3-carboxamide]	≤ 50 nM	< 50 nM
CC[C@@H](CO)Nc1cc(-n2ccc(C(=O)NC(CO)c3cccc(Cl)c3)c2)ccn1 (stereo partly drawn) [Compound 109, N-(1-(3-chloro-phenyl)-2-hydroxy-ethyl)-1-(2-(((S)-1-hydroxybutan-2-yl)amino)pyridin-4-yl)-1H-pyrrole-3-carboxamide]	≤ 50 nM	< 50 nM
Cc1cn(-c2ccnc(Nc3ccc(F)cc3)n2)cc1C(=O)NC(CO)c1cccc(Cl)c1 (stereo not shown) [Compound 110, N-(1-(3-chloro-phenyl)-2-hydroxyethyl)-1-(2-((4-fluorophenyl)-amino)pyrimidin-4-yl)-4-methyl-1H-pyrrole-3-carboxamide]	≤ 50 nM	50 to 100 nM
